Source: patent US20120035221A1, “Method of Fungal Pathogen Control in Grass or Turf” (priority 2004, published 2012)

Experiments:
[1] = system: Sclerotinia homoeocarpa (Dollar Spot); assay: Dollar Spot infection of bentgrass 'Crenshaw' turf flats (Example 1); assay type: in vivo; details: for % Dollar Spot: imidacloprid alone 481 g/Ha
Description: Bentgrass var. ‘Crenshaw’ was seeded in 10 in.×12 in. (25 cm×30 cm) peat flats containing steam sterilized 80/20 greens mix. Flats were watered daily with an overhead misting system. Plots were fertilized with 200 ml of a 288 ppm 20-20-20 Regal Green fertilizer solution 23 days later. lmidacloprid (481 g/Ha) was applied according to the Merit® insecticide label the same day that fertilizer was applied. Fungicide treatments were applied 7 days later with a CO2 backpack sprayer at 2.0 gal./1000 ft^2 (i.e., 81.5 liters/1000 m^2) with a single 8003E nozzle. Two doses of each fungicide were tested. Plots were inoculated with Sclerotinia homoeocarpa (Dollar Spot) 2 days after the fungicides were applied by placing two 1-in. (2.5-cm) pieces of infested fescue leaves on each flat. Results are presented in Table 1 (where B+a number represents days after application of the herbicide component).

Pythium aphandermatum = assay: Pythium infection of bentgrass 'Crenshaw' turf flats (Example 2); assay type: in vivo, P. aphanidermatum; details: imidacloprid alone 481 g/Ha
Description: Bentgrass var. ‘Crenshaw’ was seeded in 10 in.×12 in. (ca. 25 cm×30 cm) peat flats containing steam sterilized 80/20 greens mix. Flats were watered daily with an overhead misting system. Plots were fertilized on 26 days later with 200 ml of a 288 ppm 20-20-20 Regal Green fertilizer solution. Treatments were applied with a CO2 backpack sprayer at 2.0 gal./1000 ft^2 (i.e., 81.5 liters/1000 m^2), with a single 8003E nozzle. lmidacloprid (481 g/Ha) was applied the same day and mancozeb fungicide was applied one week later. Two doses of each fungicide were tested. Plots were inoculated with Pythium aphandermatum 2 days after the fungicides were applied by placing two 1-in (2.5-cm) pieces of infested fescue leaves on each flat. Results are presented in Table 2 (where B+a number represents days after application of the herbicide component).

grass = assay: Grass pot trial, dry weight and visual vigor under powdery mildew (Example 3); assay type: in vivo; details: 8 WAT, 1 to 5 scale, powdery mildew infestation, in words
Description: Six-inch (15-cm) diameter pots were filled to the rim with ProMix® BX potting soil and leveled off. Grass seed (0.5 g) was distributed evenly over the whole mix surface. The seed was watered in very gently. The grass was fertilized once 17 days later with Peters 20-10-20 at 100 ppm. The first cut was done on 11 days later; the grass was allowed to re-grow and cut 26 days later. Cutting was done at 2 in. (5 cm) height, using a round plastic cylinder that fit over the pot. The cut was made with hedge sheers and finished with scissors. Treatments were applied one day later using a volume of 20 ml per pot, followed with 117 ml of water/pot. The grass clippings were harvested an.d dried for dry weight determination 2 weeks after treatment (“WAT”) and 4 WAT. The grass was rated visually for vigor 8 WAT, using a 1 to 5 scale, before harvesting at the soil line. Dry weight and vigor data were subjected to analysis of variance (Fisher's Protected LSD, P=0.05).
The grass had germinated well within 30 days. Powdery mildew was noticed on some plants at 43 days after seeding, and became widespread in the plot. The powdery mildew coating appeared to grow more densely on the untreated plants. […] The invasion of the powdery mildew prevented the assessment of imidacloprid in the absence of pest pressure but it was serendipitously discovered that imidacloprid could have an effect on disease resistance in turf.

powdery mildew = assay: Greenhouse trial, powdery mildew severity on Kentucky bluegrass (Example 4); assay type: in vivo, Erysiphe graminis; details: for Powdery mildew rating: 1 = best (no disease) to 9 = dead
Curvularia [2] = assay: Disease infection of turf flats treated with Merit 75 WP (Example 5); assay type: in vivo; details: for percent infection (Curvularia): Kentucky bluegrass
Description: Four sets of twenty-four 10 in.×12 in. (25 cm×30 cm) flats were filled with sterilized sand and each set was seeded with either Kentucky bluegrass, Crenshaw L-93 bentgrass, bermudagrass, or K-31 tall fescue. Each flat was fertilized weekly with 20-20-20 soluble fertilizer at 0.144 g per 200 ml of water (equivalent to 4 lbs/year/acre). The trial was replicated once.
Twelve flats in each set were treated with Merit 75 WP equivalent to 8.6 oz/acre per 80 gal. (ca. […] per 100 liter) of water (spray application) for each turf variety and twelve flats remained untreated. Replicate 1 was treated 25 days after seeding and Replicate 2 was treated 28 days after seeding. Disease outbreaks began approximately the time of treatment. Assessments of the infection percentage were done at 13 and 25 days after treatment. […] The percent disease infection at the first and second assessments in the first trial was 22 and 26%, respectively, while the percent infection in the imidacloprid treated flats was 1 and 8% at the first and second assessment dates, respectively. In the second trial, disease pressure was lower, but the untreated flats had 3 and 8% infection at the first and second assessment dates, whereas the imidacloprid treated flats had 0.5 and 2% at the two assessment dates.

Rhizoctonia solani = assay: Brown Patch infection of bentgrass 'Crenshaw' turf flats (Example 6); assay type: in vivo; details: for % Brown Patch infection: imidacloprid alone 481 g/Ha
Description: Bentgrass var. ‘Crenshaw’ was seeded in 10 in.×12 in. (25 cm×30 cm) peat flats containing steam sterilized 80/20 greens mix. Flats were watered daily with an overhead misting system. Plots were fertilized on 11/20 with 200 ml of a 288 ppm 20-20-20 Regal Green fertilizer solution. Treatments were applied with a CO2 backpack sprayer at 2.0 gal./1000 ft^2 (i.e., 81.5 liters/1000 m^2) and a single 8003E nozzle. Imidacloprid was applied on 16 days after seeding and fungicides applied 21 days after seeding and 35 days after seeding. Plots were inoculated 18 days after seeding with 0.25 g of fescue seed infected with Rhizoctonia solani. Results are presented in Table 4 (where B+a number represents days after application of the herbicide component).

Pythium aphanedermatum = assay: Pythium infection of bentgrass sod flats (Example 7); assay type: in vivo; details: for % Pythium: imidacloprid alone 481 g/Ha
Description: Bentgrass sod var. ‘Crenshaw’ was cut and placed in 6″×7″ (15 cm×17.5 cm) peat flats containing steam-sterilized 80/20 greens mix during the spring. To create conditions favorable for the development of Pythium, the flats were watered daily with an overhead misting system to provide conditions favorable to the development on disease. In addition, plots were fertilized weekly with 100 ml of a 244 ppm 20-20-20 Regal Green fertilizer solution. Imidacloprid at 481 g/Ha was applied four days after being placed in the flats. Fungicides were applied ten days after application of imidacloprid with a CO2 backpack sprayer at 2.0 gal. /1000 ft^2 (i.e., 81.5 liters/1000 m^2) using a single 8003E nozzle. Plots were inoculated with 2 one-inch […] sections of Pythium aphanedermatum-infested fescue leaves three days after application of the fungicides, and the percent infection in the plots was measured for the next 20 days. Results are presented in Table 5 (where A+a number represents days after application of imidacloprid).

Curvularia [3] = assay: Curvularia on bermudagrass 'TifEagle', golf course field trial (Example 8); assay type: in vivo; details: for % turf infected with disease (Curvularia): imidacloprid 0.4 lb/A single application, fungicide programs every two weeks
Description: Established bermudagrass (cv. ‘TifEagle’) on a golf course in Florida was treated in late spring with imidacloprid at 0.4 lb/A (i.e., 0.45 kg/Ha). For comparison, two different fungicide spray programs were applied to nearby plots. The two fungicide spray programs were (1) fosetyl+iprodione at (4 oz.+4 oz.) per 1000 ft^2 [(1.2 g+1.2 g) per m^2] alternated with fosetyl+trifloxystrobin at (4 oz.+0.15 oz.) per 1000 ft^2 [(1.2 g+46 mg) per m^2], and (2) fosetyl+iprodione at (4 oz.+4 oz.) per 1000 ft^2 [(1.2 g+1.2 g) per m^2] alternated with flutolanil at 2.2 oz product/1000 ft^2 (0.67 g) per m^2). The fungicide applications were made every two weeks. In comparison, the imidacloprid-treated plots received only a single application of active ingredient.
At the time of treatment, Curvularia disease was just beginning to develop (i.e., the mean percent infection in all plots was 3% of the turf cover). The spread of the disease was monitored weekly for twelve weeks, and turf quality, measured on a 0 to 9 scale (0=dead turf and 9=perfect quality). […] Effects of the various treatments on disease incidence are described in Table 6 (where A+a number represents days after application of imidacloprid). Data are expressed as % turf infected with disease.

## O=[N+]([O-])NC1=NCCN1Cc1ccc(Cl)nc1 [imidacloprid]
[1]; B + 7
  % Dollar Spot: 16.7%
[1]; B + 10
  % Dollar Spot: 28.3%
[1]; B + 13
  % Dollar Spot: 35.0%
[1]; B + 17
  % Dollar Spot: 38.3%
[1]; B + 21
  % Dollar Spot: 41.7%
[1]; B + 24
  % Dollar Spot: 48.3%
[1]; imidacloprid alone, in words
  effect of imidacloprid alone on incidence of disease (Dollar Spot): no affect on incidence of disease
Pythium aphandermatum; B + 6
  % Pythium: 11.7%
Pythium aphandermatum; B + 8
  % Pythium: 20.0%
Pythium aphandermatum; B + 14
  % Pythium: 36.7%
grass
  visual vigor ratings: visual vigor ratings indicate a benefit from the imidacloprid treatments
Powdery mildew; 2 Weeks after treatment, 0.25 lbs/A (0.28 kg/Ha)
  Powdery mildew rating: 3.4
Powdery mildew; 2 Weeks after treatment, 0.4 lbs/A (0.45 kg/Ha)
  Powdery mildew rating: 3.4
Powdery mildew; 2 Weeks after treatment, 1.0 lbs/A (1.12 kg/Ha)
  Powdery mildew rating: 3.4
Powdery mildew; 6 WAT evaluation, treatments of imidacloprid, untreated 4.2, 1 to 9 scale
  disease severity rating (powdery mildew): 3.1
Powdery mildew; 6 Weeks after treatment, 0.25 lbs/A (0.28 kg/Ha)
  Powdery mildew rating: 3.2
Powdery mildew; 6 Weeks after treatment, 0.4 lbs/A (0.45 kg/Ha)
  Powdery mildew rating: 3.1
Powdery mildew; 6 Weeks after treatment, 1.0 lbs/A (1.12 kg/Ha)
  Powdery mildew rating: 3.1
Curvularia [2]; first trial, first assessment (13 days after treatment), untreated 22%
  percent infection (Curvularia): 1%
Curvularia [2]; first trial, second assessment (25 days after treatment), untreated 26%
  percent infection (Curvularia): 8%
Curvularia [2]; second trial, first assessment, untreated 3%
  percent infection (Curvularia): 0.5%
Curvularia [2]; second trial, second assessment, untreated 8%
  percent infection (Curvularia): 2%
Curvularia [2]; bentgrass, bermudagrass, tall fescue, either trial, in words
  control of the other diseases on the other turf varieties: did not provide control of the other diseases
Curvularia [2]; both replicates, in words
  control of Curvularia on the Kentucky bluegrass: good control of Curvularia
Rhizoctonia solani; B + 6
  % Brown Patch infection: 53.3%
Rhizoctonia solani; B + 8
  % Brown Patch infection: 73.3%
Rhizoctonia solani; B + 10
  % Brown Patch infection: 80.0%
Rhizoctonia solani; in words
  effect of imidacloprid alone on the disease (Brown Patch): no effect on the disease
Pythium aphanedermatum; A + 8
  % Pythium: 17.5%
Pythium aphanedermatum; A + 11
  % Pythium: 32.5%
Pythium aphanedermatum; A + 15
  % Pythium: 40.0%
Pythium aphanedermatum; A + 18
  % Pythium: 38.8%
Pythium aphanedermatum; A + 22
  % Pythium: 25.0%
Pythium aphanedermatum; A + 28
  % Pythium: 12.0%
Pythium aphanedermatum; from 11 days after treatment on, in words
  Pythium in plots treated with imidacloprid alone versus untreated plots: much less Pythium than did the untreated plots
Curvularia [3]; A + 1
  % turf infected with disease (Curvularia): 1%
Curvularia [3]; A + 8
  % turf infected with disease (Curvularia): 1%
Curvularia [3]; A + 15
  % turf infected with disease (Curvularia): 1%
Curvularia [3]; A + 22
  % turf infected with disease (Curvularia): 0%
Curvularia [3]; A + 29
  % turf infected with disease (Curvularia): 0%
Curvularia [3]; A + 37
  % turf infected with disease (Curvularia): 0%
Curvularia [3]; A + 43
  % turf infected with disease (Curvularia): 0%
Curvularia [3]; A + 51
  % turf infected with disease (Curvularia): 16%
Curvularia [3]; A + 58
  % turf infected with disease (Curvularia): 21%
Curvularia [3]; A + 66
  % turf infected with disease (Curvularia): 54%
Curvularia [3]; A + 72
  % turf infected with disease (Curvularia): 30%
Curvularia [3]; A + 79
  % turf infected with disease (Curvularia): 34%
Curvularia [3]; A + 86
  % turf infected with disease (Curvularia): 38%
Curvularia [3]; A + 94
  % turf infected with disease (Curvularia): 16%
Curvularia [3]; after 8 WAT to end of trial, in words
  development of Curvularia disease incidence compared with the other plots: increased at a much slower rate than did the untreated control
